Experimental data: the supplement of paper PMC10307832

Experiments:
Experiment in all cases: relative viability (nuclei count vs DMSO), 5 days (fraction); higher = more cells survive
[1] = compound: COc1cc2ncn(-c3cc(OCc4ccccc4C(F)(F)F)c(C(N)=O)s3)c2cc1OC + CC(=O)c1c(C)c2cnc(Nc3ccc(N4CCNCC4)cn3)nc2n(C2CCCC2)c1=O [Palbociclib] (partner 0.5 µM)
In short: (§1)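 Medians of duplicate plates are given as relative viability. That measure is the nuclei count in treated wells divided by the count in vehicle wells. Counts were taken on 4× images of lung cancer cell lines in 1536-well plates, 5 days after pin-tool dosing the day after seeding with one drug alone or a fixed anchor-drug dose plus five library-drug doses (not always all listed) in √10 steps.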

[2] = compound: COc1cc2ncn(-c3cc(OCc4ccccc4C(F)(F)F)c(C(N)=O)s3)c2cc1OC + CS(=O)(=O)N1CCN(Cc2cc3nc(-c4cccc5[nH]ncc45)nc(N4CCOCC4)c3s2)CC1 [Pictilisib] (partner 1 µM)
In short: as §1

[3] = compound: COc1cc2ncn(-c3cc(OCc4ccccc4C(F)(F)F)c(C(N)=O)s3)c2cc1OC + N=C(N)NC(=N)NCCc1ccccc1 [Phenformin] (partner 250 µM)
In short: as §1

[4] = compound: COc1cc2ncn(-c3cc(OCc4ccccc4C(F)(F)F)c(C(N)=O)s3)c2cc1OC + Nc1ncn([C@H]2C[C@H](O)[C@@H](CO)O2)c(=O)n1 [Decitabine] (partner 2 µM)
In short: as §1

Cell Line	relative viability ([1]; first compound 0.05 µM)	relative viability ([1]; first compound 0.1581 µM)	relative viability ([1]; first compound 0.5 µM)	relative viability ([1]; first compound 1.581 µM)	relative viability ([1]; first compound 5 µM)	relative viability ([2]; first compound 0.05 µM)	relative viability ([2]; first compound 0.1581 µM)	relative viability ([2]; first compound 0.5 µM)	relative viability ([2]; first compound 1.581 µM)	relative viability ([2]; first compound 5 µM)	relative viability ([3]; first compound 0.05 µM)	relative viability ([3]; first compound 0.1581 µM)	relative viability ([3]; first compound 0.5 µM)	relative viability ([3]; first compound 1.581 µM)	relative viability ([3]; first compound 5 µM)	relative viability ([4]; first compound 0.05 µM)	relative viability ([4]; first compound 0.1581 µM)	relative viability ([4]; first compound 0.5 µM)	relative viability ([4]; first compound 1.581 µM)	relative viability ([4]; first compound 5 µM)
NCI-H2087	0.232	0.185	0.24	0.0808	0.106	1.11	0.556	0.454	0.211	0.134	0.51	0.458	0.269	0.111	0.107	0.317	0.227	0.152	0.0875	0.106
NCI-H2228	0.767	0.328	0.352	0.192	0.259	0.331	0.423	0.237	0.165	0.303	0.305	0.337	0.155	0.121	0.144	–	–	–	–	–
NCI-H838	0.255	0.231	0.161	0.111	0.0913	0.514	0.519	0.478	0.14	0.0851	0.72	0.61	0.324	0.139	0.0964	0.401	0.426	0.328	0.169	0.135
NCI-H661	0.441	0.428	0.335	0.248	0.241	0.486	0.328	0.458	0.259	0.257	0.28	0.249	0.2	0.21	0.18	0.566	0.496	0.363	0.277	0.237
NCI-H520	0.149	0.253	0.179	0.155	0.121	0.29	0.316	0.345	0.193	0.172	0.598	0.642	0.269	0.266	0.211	0.482	0.525	0.261	0.217	0.219
EBC-1	–	–	–	–	–	0.478	0.383	0.145	0.134	0.141	–	–	–	–	–	–	–	–	–	–
NCI-H727	0.701	0.716	0.608	0.547	0.628	0.392	0.373	0.403	0.245	0.188	0.652	0.432	0.372	0.363	0.399	1.03	0.927	0.825	0.616	0.568
NCI-H1299	–	–	–	–	–	0.77	0.699	0.18	0.142	0.132	–	–	–	–	–	–	–	–	–	–
LK-2	0.78	0.293	0.444	0.252	0.113	0.548	0.566	0.307	0.263	0.306	0.423	0.445	0.23	0.187	0.106	0.271	0.236	0.133	0.131	0.0977
NCI-H1993	0.512	0.67	0.561	0.513	0.431	–	0.812	0.73	0.553	0.588	0.474	0.527	0.5	0.495	0.428	0.448	0.631	0.506	0.364	0.413
PC-14	0.503	0.403	0.154	0.0334	0.0605	0.717	0.694	0.343	0.0295	0.0382	0.501	0.561	0.465	0.119	0.0948	0.272	0.195	0.141	0.0475	0.0694
NCI-H1437	0.3	0.279	0.253	0.206	0.192	0.533	0.392	0.307	0.0976	0.0782	0.352	0.223	0.117	0.123	0.12	0.564	0.561	0.34	0.266	0.272
NCI-H2170	0.401	0.371	0.212	0.165	0.148	0.342	0.318	0.188	0.192	0.156	0.444	0.351	0.32	0.195	0.179	0.49	0.458	0.285	0.151	0.166
NCI-H1648	0.222	0.309	0.234	0.273	0.255	–	–	–	–	–	–	–	–	–	–	0.473	0.602	0.345	0.235	0.225
LCLC-103H	0.477	0.471	0.456	0.35	0.302	0.594	0.695	0.54	0.271	0.135	0.386	0.397	0.279	0.178	0.127	0.729	0.785	0.657	0.355	0.257
SW 900	0.478	0.5	0.499	0.399	0.257	–	–	–	–	–	0.538	0.503	0.53	0.33	0.14	0.482	0.447	0.425	0.354	0.256
IA-LM	–	–	–	–	–	0.46	0.262	0.0711	0.0659	0.0766	–	–	–	–	–	–	–	–	–	–
NCI-H1563	–	–	–	–	–	0.684	0.607	0.683	0.55	0.5	0.709	0.628	0.65	0.528	0.452	–	–	–	–	–
NCI-H596	–	–	–	–	–	0.393	0.405	0.371	0.191	0.178	0.81	0.811	0.466	0.397	0.275	1.6	1.13	0.935	0.817	0.425
NCI-H522	0.886	0.866	0.842	1.01	0.401	–	–	–	–	–	0.741	0.581	0.612	0.484	0.404	0.574	0.628	0.54	0.618	0.36
CAL-12T	0.411	0.422	0.381	0.187	0.148	0.351	0.389	0.323	0.186	0.177	0.524	0.339	0.21	0.153	0.138	–	–	–	–	–
